Columns and labels:
[1] = Solubility of the compound in PBS buffer and 0.5% DMSO at 200 uM by LC-MS analysis; assay type: physicochemical
[2] = Metabolic stability in male CD-1 mouse liver microsomes assessed as parent compound remaining measured after 30 mins in presence of NADPH regenerating system by LC-MS analysis; assay type: ADME, Microsome; details: read-out: Stability
in vitro [3] = details: male, CD-1, mouse, liver microsomes
[4] = Metabolic stability in human liver microsomes assessed as parent compound remaining measured after 30 mins in presence of NADPH regenerating system by LC-MS analysis; assay type: ADME, Microsome; details: read-out: Stability
in vitro [5] = details: male, Sprague-Dawley, rat, liver microsomes
[6] = Permeability of the compound in PBS buffer at pH 7.4 at 200 uM measured after 5 hrs by PAMPA assay; assay type: ADME; details: for Papp at 5 h, 200 µM: PAMPA, pH 7.4, read-out: permeability
[7] = Metabolic stability in human liver microsomes assessed as half life measured after 1 hr in presence of NADPH regenerating system by LC-MS analysis; assay type: ADME, Microsome
[8] = Metabolic stability in male Sprague-Dawley rat liver microsomes assessed as parent compound remaining measured after 30 mins in presence of NADPH regenerating system by LC-MS analysis; assay type: ADME, Microsome; details: read-out: Stability

Row | solubility [1] | remaining at 0.5 h [2] [%] | half-life at 1 h (in vitro [3]) [min] | remaining at 0.5 h [4] [%] | half-life at 1 h (in vitro [5]) [min] | Papp at 5 h, 200 µM [6] [×10⁻⁶ cm/s] | half-life [7] [min] | remaining at 0.5 h [8] [%] | permeability ([6]; pampa, pH 7.4, 5 h, 200 µM) | SMILES
1 | soluble | – | – | – | – | – | – | – | – | COc1cccc(S(=O)(=O)NCc2cccc(C(NC(=O)c3cccc4c3-c3ccccc3C4=O)C(=O)O)c2)c1 (centres undefined)
2 | – | < 3 | 3.6 | – | – | – | – | – | – | COc1ccc(S(=O)(=O)NCc2cccc(C(NC(=O)c3cccc4c3-c3ccccc3C4=O)C(=O)O)c2)cc1 (centres undefined)
3 | soluble | – | – | – | – | – | – | – | – | CN(C)c1cccc(S(=O)(=O)NCc2cccc([C@@H](NC(=O)c3cccc4c3-c3ccccc3C4=O)C(=O)O)c2)c1
4 | – | 39 | 25 | – | – | – | – | – | – | CCOc1ccc(S(=O)(=O)N2CCc3ccc(C(NC(=O)c4cccc5c4-c4cccnc4C5=O)C(=O)O)cc3C2)cc1C#N (centres undefined)
5 | – | < 3 | 5.4 | – | – | – | – | – | – | Cn1c2ccccc2c2c(C(=O)NC(C(=O)O)c3ccc4c(c3)CN(S(=O)(=O)c3cccc(Br)c3)CC4)cccc21 (centres undefined)
6 | – | 22 | 15 | 89 | 400 | 2.2 | 200 | 92 | – | Cn1c2ccccc2c2c(C(=O)NC(C(=O)O)c3ccc4c(c3)CN(S(=O)(=O)c3cccc(C#N)c3)CC4)cccc21 (centres undefined)
7 | – | 8 | 8 | 66 | 280 | 4.7 | 47 | 86 | – | CCOc1ccc(S(=O)(=O)N2CCc3ccc(C(NC(=O)c4cccc5c4c4ccccc4n5C)C(=O)O)cc3C2)cc1C#N (centres undefined)
8 | – | < 3 | 3.2 | < 3 | 78 | – | 4.5 | 77 | – | N#Cc1cc(S(=O)(=O)N2CCc3ccc(C(NC(=O)c4cccc5c4-c4ccccc4C5=O)C(=O)O)cc3C2)ccc1F (centres undefined)
9 | – | 0 | 3.3 | – | – | – | – | – | – | O=C(NC(C(=O)O)c1ccc2c(c1)CN(S(=O)(=O)c1cccc(Br)c1)CC2)c1cccc2c1-c1ccccc1C2=O (centres undefined)
10 | – | 16 | 13 | 64 | 240 | 4.7 | 51 | 86 | – | Cn1c2ccccc2c2c(C(=O)NC(C(=O)O)c3ccc4c(c3)CN(S(=O)(=O)c3ccc(F)c(C#N)c3)CC4)cccc21 (centres undefined)
11 | soluble | < 3 | 3.8 | – | – | – | – | – | Permeable | COc1ccc(S(=O)(=O)N2CCc3ccc(C(NC(=O)c4cccc5c4-c4ccccc4C5=O)C(=O)O)cc3C2)cc1 (centres undefined)
12 | – | 19 | 12 | – | – | – | – | – | – | CCOc1ccc(S(=O)(=O)N2CCc3ccc(C(NC(=O)c4cccc5c4-c4ccccc4C5F)C(=O)O)cc3C2)cc1C#N (centres undefined)
13 | – | 3 | 3.8 | < 3 | 99 | – | 5.1 | 78 | – | CCOc1ccc(S(=O)(=O)N2CCc3ccc(C(NC(=O)c4cccc5c4-c4ccccc4C5=O)C(=O)O)cc3C2)cc1C#N (centres undefined)
14 | – | 7.5 | 6.1 | < 3 | 130 | – | 6.1 | 83 | – | N#Cc1cccc(S(=O)(=O)N2CCc3ccc(C(NC(=O)c4cccc5c4-c4ccccc4C5=O)C(=O)O)cc3C2)c1 (centres undefined)
15 | – | 3.5 | 4.5 | – | – | – | – | – | – | COc1ccc(S(=O)(=O)N2CCc3ccc(C(NC(=O)c4cccc5c4-c4ccccc4C5=O)C(=O)O)cc3C2)cc1C#N (centres undefined)
16 | – | < 3 | 4.7 | – | – | – | – | – | – | CCOc1ccc(S(=O)(=O)N2CCc3ccc(C(NC(=O)c4cccc5c4-c4ccccc4C5)C(=O)O)cc3C2)cc1C#N (centres undefined)
